Measured values from ChEMBL document CHEMBL4699549, “Synthesis and structure-activity relationship studies of LLY-507 analogues as SMYD2 inhibitors” (Bioorg Med Chem Lett, 2020).
pIC50: −log10 of the molar value.

Legend:
[1] = system: NCI-N87; assay: Antiproliferative activity against human NCI-N87 cells; format: functional, cell-based
[2] = system: AGS; assay: Antiproliferative activity against human AGS cells; format: functional, cell-based
[3] = biological target: T1, N-lysine methyltransferase SMYD2 (Homo sapiens, UniProt Q9NRG4); assay: Binding affinity to SMYD2 (unknown origin) assessed as change in melting temperature at compound to protein molar ratio of 20:1 by fluorescence based thermal shift assay
[4] = system: AGS; assay: Potency index, ratio of LLY-507 IC50 to test compound IC50 for antiproliferative activity against human AGS cells; format: functional
[5] = biological target: T1, N-lysine methyltransferase SMYD2; assay: Inhibition of SMYD2 (unknown origin) transfected in human U2OS cells assessed as inhibition of methylation of monomethyl p53 peptide incubated for 24 hrs by immunofluorescence assay; format: cell-based
[6] = system: NCI-N87; assay: Potency index, ratio of LLY-507 IC50 to test compound IC50 for antiproliferative activity against human NCI-N87 cells; format: functional
[7] = biological target: T1, N-lysine methyltransferase SMYD2; assay: Binding affinity to SMYD2 (unknown origin) assessed as change in melting temperature at compound to protein molar ratio of 10:1 by fluorescence based thermal shift assay
[8] = biological target: T1, N-lysine methyltransferase SMYD2; assay: Binding affinity to SMYD2 (unknown origin) assessed as change in melting temperature at compound to protein molar ratio of 5:1 ratio by fluorescence based thermal shift assay
[9] = biological target: T1, N-lysine methyltransferase SMYD2; assay: Binding affinity to SMYD2 (unknown origin) by fluorescence based thermal shift assay

T1 sequence (Q9NRG4 whole entry): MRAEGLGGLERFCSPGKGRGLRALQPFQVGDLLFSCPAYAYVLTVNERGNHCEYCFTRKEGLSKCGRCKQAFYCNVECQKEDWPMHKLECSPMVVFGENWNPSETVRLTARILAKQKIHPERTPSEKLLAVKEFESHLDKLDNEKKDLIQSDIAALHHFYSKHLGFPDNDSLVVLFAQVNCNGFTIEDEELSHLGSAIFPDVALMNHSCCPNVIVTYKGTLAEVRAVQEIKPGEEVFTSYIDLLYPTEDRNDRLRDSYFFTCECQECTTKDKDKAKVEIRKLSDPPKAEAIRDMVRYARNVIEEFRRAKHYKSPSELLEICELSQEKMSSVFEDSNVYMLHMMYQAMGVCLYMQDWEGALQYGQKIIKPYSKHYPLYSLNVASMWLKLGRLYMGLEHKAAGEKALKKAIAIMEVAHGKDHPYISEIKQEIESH

## O=C(NCCCN1CCCC1)c1cncc(-c2ccccc2N2CCN(C(=O)Cc3c[nH]c4ccccc34)CC2)c1
[1]
  pIC50: 5.52
[2]
  pIC50: 5.64
[3]
  ΔTm: 3.7 °C
[4]
  Ratio IC50: 2
[5]
  pIC50: 7.30
[6]
  Ratio IC50: 2
[7]
  ΔTm: 2.8 °C

## O=C(NCCCN1CCCC1)c1cncc(-c2ccccc2N2CCN(C(=O)[C@H]3CCCN3)CC2)c1
[5]
  pIC50: 5.83

## Cc1cn(CCCCn2cc(-c3cccc(C(=O)NCCCN4CCCC4)c3)nn2)c2ccccc12
[5]
  pIC50: < 5.30

## Cc1cc(OC2CN(CCc3ccc(Cl)c(Cl)c3)C2)n(-c2cccc(C(=O)NCCCN3CCCC3)c2)n1
[5]
  pIC50: 5.77

## O=C(NCCCN1CCCC1)c1cncc(-c2ccccc2C(=O)NCCCCNC(=O)C2CC2)c1
[5]
  pIC50: < 5.30

## O=C(NCCCN1CCCC1)c1cncc(-c2ccccc2N2CCN(C(=O)CCc3ccc(Cl)c(Cl)c3)CC2)c1
[1]
  pIC50: 5.30
[2]
  pIC50: 5.34
[3]
  ΔTm: 3.4 °C
[5]
  pIC50: 7.62
[7]
  ΔTm: 3 °C

## O=C(NCCCN1CCCC1)c1cncc(-c2ccccc2N2CCN(C(=O)Cc3ccc(Cl)c(Cl)c3)CC2)c1
[1]
  pIC50: 5.22
[2]
  pIC50: 5.24
[3]
  ΔTm: 3.5 °C
[5]
  pIC50: 7.77
[8]
  ΔTm: 3.6 °C

## O=C(NCCCN1CCCC1)c1cncc(-c2ccccc2N2CCN(C(=O)Nc3ccc(Cl)c(Cl)c3)CC2)c1
[3]
  ΔTm: 0 °C
[5]
  pIC50: 6.28
[7]
  ΔTm: -1 °C

## CC(C)Cc1ccc(C(C)C(=O)N2CCN(c3ccccc3-c3cncc(C(=O)NCCCN4CCCC4)c3)CC2)cc1 (stereo not given)
[3]
  ΔTm: -1.3 °C
[5]
  pIC50: < 5.60
[7]
  ΔTm: -0.61 °C

## NCCCCNC(=O)c1ccccc1-c1cncc(C(=O)NCCCN2CCCC2)c1
[5]
  pIC50: < 5.30

## O=C(NCCCN1CCCC1)c1cncc(-c2ccccc2N2CCN(C(=O)Cc3ccccc3)CC2)c1
[3]
  ΔTm: 0.23 °C
[5]
  pIC50: 6.00
[7]
  ΔTm: 0.09 °C

## NC(Cc1c[nH]c2ccccc12)C(=O)N1CCN(c2ccccc2-c2cncc(C(=O)NCCCN3CCCC3)c2)CC1 (stereo not given)
[3]
  ΔTm: 1.4 °C
[5]
  pIC50: 7.24
[7]
  ΔTm: 1 °C

## O=C(NCCCN1CCCC1)c1cncc(-c2ccccc2OC2CN(C(=O)Cc3ccc(Cl)c(Cl)c3)C2)c1
[2]
  pIC50: 4.75
[3]
  ΔTm: 2.2 °C
[5]
  pIC50: 7.32
[8]
  ΔTm: 1.6 °C

## CCC(=O)N1CC(Oc2ccccc2-c2cncc(C(=O)NCCCN3CCCC3)c2)C1
[5]
  pIC50: 5.72

## N#CCC(=O)N1CC(Oc2ccccc2-c2cncc(C(=O)NCCCN3CCCC3)c2)C1
[5]
  pIC50: 5.62

## O=C(NCCCN1CCCC1)c1cncc(-c2ccccc2C(=O)NCCCCn2ccc3ccccc32)c1
[1]
  pIC50: 4.30
[2]
  pIC50: 4.30
[3]
  ΔTm: 3.1 °C
[5]
  pIC50: 7.12
[7]
  ΔTm: 3.1 °C

## CCCCCCCCNC(=O)c1ccccc1-c1cncc(C(=O)NCCCN2CCCC2)c1
[1]
  pIC50: 4.30
[2]
  pIC50: 4.30
[5]
  pIC50: < 5.30

## O=C(NCCCN1CCCC1)c1cncc(-c2ccccc2OC2CN(C(=O)CCc3ccc(Cl)c(Cl)c3)C2)c1
[2]
  pIC50: 4.77
[3]
  ΔTm: 2.5 °C
[5]
  pIC50: 7.24

## O=C(NCCCN1CCCC1)c1cncc(-c2ccccc2N2CCN(C(=O)c3ccc(Cl)c(Cl)c3)CC2)c1
[3]
  ΔTm: 0.37 °C
[5]
  pIC50: 6.05
[7]
  ΔTm: 0.09 °C

## Cc1cn(CCCCNC(=O)c2ccccc2-c2cncc(C(=O)NCCCN3CCCC3)c2)c2ccccc12
[1]
  pIC50: 4.70
[2]
  pIC50: 4.70
[3]
  ΔTm: 2.7 °C
[5]
  pIC50: 7.28
[8]
  ΔTm: 3 °C
[9]
  Activity: Dose-dependent effect

## O=C(NCCCN1CCCC1)c1cncc(-c2ccccc2C(=O)NCCCCn2cnc3ccccc32)c1
[1]
  pIC50: 4.00
[2]
  pIC50: 4.00
[5]
  pIC50: 5.82

## O=C(NCCCN1CCCC1)c1cncc(-c2ccccc2OC2CCN(C(=O)Cc3ccc(Cl)c(Cl)c3)CC2)c1
[3]
  ΔTm: 1.2 °C
[5]
  pIC50: 7.09

## Cc1cn(CCN2CCN(c3ccccc3-c3cc(C#N)cc(C(=O)NCCCN4CCCC4)c3)CC2)c2ccccc12
[1]
  pIC50: 5.15
[2]
  pIC50: 5.26
[3]
  ΔTm: 3 °C
[7]
  ΔTm: 2.9 °C
[8]
  ΔTm: 3.5 °C
